Patent publication US5744476A, “Dopamine D1 agonists for the treatment of dementia” (Interneuron Pharmaceuticals, Inc., priority 1994, dated 1998)
Entries after “also recorded” stand apart in the source; their conditions may differ. Like-named read-outs stand apart in the source and are kept apart here.

Legend:
[1] = test system: acetylcholine release in the frontal cortex; test: In vivo microdialysis, frontal cortex ACh release; parameters: species or system Male Sprague-Dawley rats
Source text: The in vivo microdialysis technique is a method for evaluating the effects of drugs on brain neurotransmitter systems by monitoring the extracellular concentration of neurotransmitters and metabolites in awake freely-moving animals. Probes are implanted directly into the brain of rats and serve to continuously sample the extracellular fluid in the vicinity of the probe. Samples containing the dialyzed extracellular fluid are collected at the outlet of the perfusion system and analyzed for content of brain neurotransmitters and metabolites by high-performance liquid chromatography coupled with electrochemical detection (HPLC-EC). […]
The probe was perfused continuously with artificial CSF (composition in Mm: 121 NaCl, 3.5 KCl, 1.2 CaCl2, 1.2 MgCl2, 1.0 NaH2 PO4, 25 NaHCO3, and 0.001 neostigmine) at a flow rate of 1.5 ul/min. […] A 20 ul aliquot was analyzed immediately for acetylcholine (ACh) content by high-performance liquid chromatography with electrochemical detection (HPLC-EC) (see below for details). […]
DHX and SKF 81297, another D1 agonist (Andersen et al., Eur J Pharmacol 188:335, 1990), were administered ip after a stable baseline of ACh release was established in each animal. […] The effects of DHX on ACh release were evaluated in two brain regions associated with cognition (striatum, frontal cortex). […]

6-OHDA-lesioned rats = test: Rotational behavior in 6-OHDA-lesioned rats (rodent model of PD); format: in vivo, rat; details: 10 mg/kg
Source text: (§1) The test protocol followed is disclosed in Ungerstedt, Acta Physiol. Scand. 82 Supp. 367, p. 49-68 (1971). […] This activity may reside in one or more optical isomers of such a metabolite.

[2] = test system: scopolamine-induced deficits (rats); test: Passive avoidance in rats, scopolamine-induced amnesia (step-through latency); details: scopolamine 3.0 mg/kg
striatal acetylcholine = test: In vivo microdialysis, striatal ACh release; parameters: species or system Male Sprague-Dawley rats; details: for dialysate concentrations of striatal ACh / duration of increase of dialysate concentrations of striatal ACh: i.p.; for duration of increase of dialysate concentrations of striatal ACh: post-injection; for stimulatory effect of DHX on striatal ACh release (blockade): low dose in combination with DHX
Source text: The in vivo microdialysis technique is a method for evaluating the effects of drugs on brain neurotransmitter systems by monitoring the extracellular concentration of neurotransmitters and metabolites in awake freely-moving animals. Probes are implanted directly into the brain of rats and serve to continuously sample the extracellular fluid in the vicinity of the probe. Samples containing the dialyzed extracellular fluid are collected at the outlet of the perfusion system and analyzed for content of brain neurotransmitters and metabolites by high-performance liquid chromatography coupled with electrochemical detection (HPLC-EC).
Male Sprague-Dawley rats weighing 250-350 g were group housed (n=3 per cage) in a temperature-controlled room (23±2° C.) on a 14/10 hr light cycle with free access to food and water. After the surgical procedure, animals were placed in individual cages.
The surgical procedure involved the implantation and fixation of a probe holder/guide cannula to the skull of anesthetized rats. The guide cannula was the attachment site for the rigid concentric microdialysis probes which were implanted into the awake, fully-recovered rat at the onset of the experiment. […] For placement of the guide cannulae, rats were anesthetized with ketamine:xylazine (87:13 mg/kg), shaved and placed in a stereotaxic frame (Narashige Instruments). An incision was made to expose the skull and a small hole was drilled to expose the dura mater for placement of the guide. Guide cannulae were implanted in the striatum according to the following stereotaxic coordinates with reference to bregma: AP -+1.5 mm, L -+2.6 mm and V to dura -2.5 mm (Paxinos and Watson, The rat brain in stereotaxic coordinates, 2nd. ed., Academic Press, London, 1986). The microdialysis probe extended 3.0 mm beyond the tip of the guide cannula which yielded a final ventral placement of 5.5 mm below the dura. The coordinates for placement of the guide into frontal cortex were: AP -+3.0 mm, L -+2.8 mm and V to dura 0 mm, with the probe extending 3.0 mm below the dura. Guide cannulae were fixed to the skull with dental acrylic and anchor screws and a dummy cannula was inserted into each guide for the recovery period. Animals were returned to their home cage and allowed to recover from surgery for 24-48 hrs.
For each experiment, the dialysis probe was connected to a microinfusion pump (CMA-100; Bioanalytical Systems (BAS); W. Lafayette, Ind.) equipped with a liquid switch (CMA-110; BAS) via low dead volume fused-silica tubing (I.D.=75 um; O.D.=150 um). At the time of experiment, the dummy cannula was removed and the probe was inserted through the guide into the conscious animal under light restraint.
The probe was perfused continuously with artificial CSF (composition in Mm: 121 NaCl, 3.5 KCl, 1.2 CaCl2, 1.2 MgCl2, 1.0 NaH2 PO4, 25 NaHCO3, and 0.001 neostigmine) at a flow rate of 1.5 ul/min. Dialysate samples were collected every 20 min (total sample volume=30 μl). A 20 ul aliquot was analyzed immediately for acetylcholine (ACh) content by high-performance liquid chromatography with electrochemical detection (HPLC-EC) (see below for details). A baseline period of at least one hour was allowed prior to invoking any experimental manipulations. […] Sample collection proceeded for a minimum of 3 hrs following drug administration. Upon completion of the experiment, animals were sacrificed by decapitation and brains examined grossly to verify probe placement.
DHX and SKF 81297, another D1 agonist (Andersen et al., Eur J Pharmacol 188:335, 1990), were administered ip after a stable baseline of ACh release was established in each animal. […] The effects of DHX on ACh release were evaluated in two brain regions associated with cognition (striatum, frontal cortex).

[3] = Concentration of DHX in brain and plasma over time; format: in vivo, rat; details: 10 mg/kg
Source text: as §1

[4] = test system: MPTP-induced parkinsonism model in primates; details: cited from earlier work
adenylate cyclase = details: cited from earlier work
dopamine D1 receptor = details: cited from earlier work
monkeys = details: cited from earlier work
cortical ACh release = details: in vivo; cited from earlier work
animals = details: cited from earlier work; for memory-improving effect of nigrostriatal self-stimulation or of d-amphetamine (blockade): in vivo
striatal ACh output = details: cited from earlier work
[5] = test system: CADs due to lesions of the medial projection of the basal forebrain to the cortex; details: cited from earlier work
[6] = test system: behavioral effects previously associated with D2 antagonists; details: in vivo; cited from earlier work
[7] = test system: choice accuracy deficits (CADS) due to scopolamine; details: radial arm maze; cited from earlier work
rodents = details: cited from earlier work; for retention of win-stay and win-shift tasks: Packard and White, 1989
PD patients = details: clinical; cited from earlier work

Oc1cc2c(cc1O)[C@@H]1c3ccccc3CN[C@H]1CC2 (relative stereo) [DHX, trans-10,11-dihydroxy-5,6,6a,7,8,12b-hexahydrobenzo[a]phenanthridine]
ACh release in the frontal cortex ([1]; injection of DHX): increase in acetylcholine release in the frontal cortex; also recorded: increased ACh release in the frontal cortex | biological activity in a rodent model of PD (rotational behavior), persistence (6-OHDA-lesioned rats): persists long after the levels of DHX in the brain and plasma have diminished | step-through latency ([2]; DHX 0.1 mg/kg): increased step-through latency, however, these increases were not statistically-significant | step-through latency (reversal of scopolamine-induced deficits) ([2]; DHX 0.3 mg/kg, 10 min prior to training): significantly improve scopolamine-induced deficits; also recorded: significantly improved scopolamine-induced deficits in step-through latency | step-through latency ([2]; DHX 1.0 mg/kg): increased step-through latency, however, these increases were not statistically-significant | dialysate concentrations of striatal ACh (striatal acetylcholine; 3.0 mg/kg): increase in dialysate concentration of striatal acetylcholine; also recorded: increase dialysate concentrations of striatal ACh | duration of increase of dialysate concentrations of striatal ACh (striatal acetylcholine; 3.0 mg/kg): at least 180 min | dialysate concentrations of striatal ACh (striatal acetylcholine; 10 mg/kg): increase in dialysate concentration of striatal acetylcholine; also recorded: increase dialysate concentrations of striatal ACh | duration of increase of dialysate concentrations of striatal ACh (striatal acetylcholine; 10 mg/kg): at least 180 min | striatal ACh release (striatal acetylcholine; 17.5 mg/kg): appears to be less than that evoked by lower doses | levels of DHX in the brain and plasma [3]: diminished | eye blink rates ([4]; 0.3 to 0.93 mg/kg, im): increasing eye blink rates | parkinsonian signs (tremor, motor freezing, abnormal posture, rigidity, bradykinesia) ([4]; 0.3 to 0.93 mg/kg, im): dramatically attenuated parkinsonian signs | activity in the MPTP-induced parkinsonism model ([4]; primates): potent activity in the MPTP-induced parkinsonism model in primates | potency in the stimulation of adenylate cyclase versus dopamine (adenylate cyclase; versus dopamine): approximately 70 times more potent | efficacy in the stimulation of adenylate cyclase versus dopamine (adenylate cyclase; versus dopamine, in words): as efficacious | affinity for D1 receptor (dopamine D1 receptor; D1): nanomolar affinity | selectivity for the D1 over the D2 receptor (dopamine D1 receptor): 12- to 60 fold | spatial working memory (monkeys; young, intact monkeys): produced improvements in young, intact monkeys

CN1Cc2ccccc2C2c3cccc4[nH]cc(c34)CC21 (single isomer, unassigned) [CY 208-243]
cortical ACh release (cortical ACh release): significantly increased cortical ACh release

NCCc1cc(O)c(O)cc1O [6-OHDA, 6-hydroxydopamine]
learning tasks after lesion of the nigrostriatal tract (animals; avoidance conditioning, Morris water maze): impair a variety of learning tasks | memory-improving effect of nigrostriatal self-stimulation or of d-amphetamine (blockade) (animals): blocked

Oc1cc2c(cc1O)[C@@H](c1ccccc1)CNCC2 [(+)-SKF 38393]
increase of striatal ACh output (striatal ACh output; systemic administration): 75%

CCCN1CCO[C@@H]2c3cc(O)ccc3CC[C@H]21 [PHNO]
cortical ACh release (cortical ACh release): no effect

CN1CCc2cc(Cl)c(O)cc2[C@@H](c2ccccc2)C1 [SCH23390]
stimulatory effect of DHX on ACh release in the frontal cortex (blockade) ([1]; low dose in combination with DHX, listed as SCH 23390): completely block the stimulatory effect of administering DHX on acetylcholine release in the frontal cortex; also recorded: sensitive to antagonism by SCH 23390 | stimulatory effect of DHX on striatal ACh release (blockade) (striatal acetylcholine): completely block the stimulatory effect of DHX on striatal ACh release | stimulatory effect of DHX on striatal ACh release (blockade) (striatal acetylcholine; listed as SCH 23390): completely block the stimulatory effect of administering DHX on striatal acetylcholine release | D1 agonist-induced increase in cortical ACh release (blockade) (cortical ACh release): blocked selectively | choice accuracy deficits due to lesions [5]: reversed CADs due to lesions of the medial projection of the basal forebrain to the cortex | behavioral effects [6]: mimic some of the behavioral effects previously associated with D2 antagonists | effect of D1 agonist on striatal ACh output (blockade) (striatal ACh output; 0.3 mg/kg): blocked

Oc1cc2c(cc1O)C(c1ccccc1)CNCC2 (centres unmarked) [SKF38393]
choice accuracy deficits due to scopolamine [7]: alleviated choice accuracy deficits (CADS) due to scopolamine | retention of win-stay and win-shift tasks (rodents): but not SKF38393, improved retention of the tasks | efficacy in stimulating adenylate cyclase relative to dopamine (adenylate cyclase; as efficacious as dopamine): 30-50% | selectivity for the D1 over the D2 receptor (dopamine D1 receptor): greater than 10 fold | spatial working memory (monkeys; aged and reserpine-treated monkeys): improved spatial working memory in aged and reserpine-treated monkeys

Oc1cc2c(c(Cl)c1O)CCNCC2c1ccccc1 (centres unmarked) [SKF 81297]
dialysate concentrations of striatal ACh (striatal acetylcholine; 3.0 mg/kg): increase in dialysate concentration of striatal acetylcholine; also recorded: elevated striatal ACh release

CN1[C@@H]2C[C@@H](OC(=O)[C@H](CO)c3ccccc3)C[C@H]1[C@@H]1O[C@@H]12 [Scopolamine]
acquisition of the passive avoidance task (deficit) ([2]; ip, 30 min prior to training): severe deficit in the acquisition of the passive avoidance task

CC(C)C[C@H]1C(=O)N2CCC[C@H]2[C@]2(O)O[C@](NC(=O)[C@@H]3C=C4c5cccc6[nH]c(Br)c(c56)C[C@H]4N(C)C3)(C(C)C)C(=O)N12 [bromocriptine]
efficacy in the treatment of PD (PD patients): either limited efficacy relative to levodopa or limited long-term efficacy

C[C@H](N)Cc1ccccc1 [d-amphetamine]
memory improvement (animals; indirect dopamine agonist): memory-improving effects | retention of win-stay and win-shift tasks (rodents): improved retention of the tasks | win-stay acquisition (rodents; post-training intracaudate injection): improved win-stay acquisition

N[C@@H](Cc1ccc(O)c(O)c1)C(=O)O [levodopa]
efficacy in the treatment of PD (PD patients): allowed PD patients to reach normal life expectancies

CCCN1C[C@H](CSC)C[C@@H]2c3cccc4[nH]cc(c34)C[C@H]21 [pergolide]
efficacy in the treatment of PD (PD patients): either limited efficacy relative to levodopa or limited long-term efficacy

O=c1[nH]c2ccccc2n1C1CCN(CCCC(c2ccc(F)cc2)c2ccc(F)cc2)CC1 [pimozide]
memory-improving effect of nigrostriatal self-stimulation or of d-amphetamine (blockade) (animals): blocked

CCCN1CCC[C@@H]2Cc3n[nH]cc3C[C@H]21 [quinpirole]
striatal ACh release (striatal acetylcholine; 2.0 mg/kg, data not shown): decreases striatal ACh release

CCN1CCC[C@H]1CNC(=O)c1c(O)c(Cl)cc(Cl)c1OC [raclopride]
effect of D1 agonist on striatal ACh output (potentiation) (striatal ACh output; administered 60 min after SKF 38393): potentiated
